Experimental findings from ChEMBL document CHEMBL1201862, “PubChem BioAssay data set” (2004) are described below.

Structures are written as SMILES.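 All cell lines were grown in 96-well plates and treated with compound for 48 hours. Here, GI50 denotes the concentration required for 50% inhibition of growth.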 Calls of active or inactive are those of the source. No stated cut-off is given here; in the data, active = GI50 up to about 1.1 µM and inactive = higher.

Among the test systems are DU-145; PC-3; BT-549; OVCAR-4; NCI-H522; HCT-15; Malme-3M; SR; MDA-N; OVCAR-5; ACHN; KM12; SW-620; CCRF-CEM; TK-10.
Holding throughout (experiment): inhibition of tumour cell growth, NCI panel, 48 h

As to `OCCSCC(O)Cn1cnc2c(O)nc(Nc3ccccc3)nc21` (centres undefined), the GI50 with DU-145 is > 100 µM (inactive); in the assay with PC-3, > 100 µM (inactive); in the assay on BT-549, > 100 µM (inactive); in the assay with OVCAR-4, > 100 µM (inactive); in the assay on NCI-H522, > 100 µM (inactive); with HCT-15 it was greater than 100 µM. In addition, the GI50 with Malme-3M, in the assay on SR, in the assay on MDA-N, with OVCAR-5, in the assay on ACHN and with KM12 was > 100 µM (inactive) each time. In addition, the GI50 with SW-620, in the assay on CCRF-CEM and in the assay on TK-10 was > 100 µM (inactive) throughout.
Take `O=C(Nc1sccc1S(=O)(=O)c1ccccc1)c1cccnc1`: the GI50 in the assay with DU-145 was 39.2 µM (inactive); in the assay on PC-3 it was 37.6 µM (inactive); with BT-549, > 37.1 µM (inactive); with OVCAR-4, > 100 µM (inactive); in the assay on NCI-H522 it was 7.98 µM (inactive); in the assay on HCT-15, 5.18 µM. In addition, the GI50 was 8.59 µM (inactive) in the assay with Malme-3M; 5.2 µM (inactive) in the assay with SR; 1.02 µM (active) in the assay on MDA-N; > 70.6 µM (inactive) in the assay on OVCAR-5; 64.9 µM (inactive) in the assay with ACHN; 4.62 µM (inactive) in the assay on KM12. The results for the GI50 in the assay with SW-620, with CCRF-CEM and in the assay on TK-10 were 5.92 µM (inactive), 7.03 µM (inactive) and > 83 µM (inactive), respectively.
With `CC(=O)Nc1ccc2cc(C)c(O)nc2n1`, the GI50 was > 100 µM (inactive) in the assay with DU-145; > 100 µM (inactive) in the assay with PC-3; > 100 µM (inactive) in the assay on BT-549; > 100 µM (inactive) in the assay with OVCAR-4; > 100 µM (inactive) in the assay with NCI-H522; greater than 100 µM with HCT-15. Besides, the GI50 in the assay with Malme-3M, in the assay on SR, in the assay with MDA-N, in the assay on OVCAR-5, in the assay with ACHN and with KM12 was > 100 µM (inactive) throughout. Moreover, the GI50 in the assay on SW-620, in the assay on CCRF-CEM and in the assay on TK-10 was > 100 µM (inactive) each time.
`CCCOC(=O)C1C2CCC(O2)C1C(=O)O` (centres undefined): the GI50 in the assay with DU-145 was > 100 µM (inactive); with PC-3 it was > 100 µM (inactive); in the assay on BT-549 it was > 100 µM (inactive); in the assay with OVCAR-4, > 100 µM (inactive); in the assay on NCI-H522 it was > 100 µM (inactive); in the assay on HCT-15, greater than 100 µM. For the same compound, the GI50 in the assay on Malme-3M, in the assay with SR, in the assay on MDA-N, in the assay on OVCAR-5, in the assay on ACHN and with KM12 was > 100 µM (inactive) in each case. The GI50 with SW-620, with CCRF-CEM and in the assay on TK-10 was > 100 µM (inactive) throughout.
Consider `C[C@@]12C[C@@H](c3ccccc3O1)N1CCCCSC1=N2`, for which the GI50 is > 100 µM (inactive) in the assay on DU-145; > 100 µM (inactive) with PC-3; > 100 µM (inactive) in the assay with BT-549; > 100 µM (inactive) in the assay on OVCAR-4; > 100 µM (inactive) in the assay with NCI-H522; greater than 100 µM in the assay on HCT-15. Further, the GI50 in the assay on Malme-3M, with SR, in the assay on MDA-N, with OVCAR-5, with ACHN and in the assay on KM12 was > 100 µM (inactive) throughout. In addition, the GI50 in the assay with SW-620, with CCRF-CEM and in the assay on TK-10 was > 100 µM (inactive) throughout.
For `CCCCc1ccc(-n2sc3ncc([N+](=O)[O-])cc3c2=O)cc1`, the GI50 in the assay on DU-145 was 23.3 µM (inactive); with PC-3, 5.55 µM (inactive); in the assay on BT-549 it was 17.2 µM (inactive); in the assay with OVCAR-4, 6.58 µM (inactive); in the assay on NCI-H522 it was 1.2 µM (inactive); with HCT-15 it was 15.1 µM. The GI50 with Malme-3M was 7.8 µM (inactive); in the assay with SR it was 16 µM (inactive); with MDA-N it was 14.8 µM (inactive); with OVCAR-5 it was 13.4 µM (inactive); with ACHN, 14.8 µM (inactive); in the assay with KM12 it was 12 µM (inactive). The GI50 in the assay on SW-620 is 16.8 µM (inactive); with CCRF-CEM, 7.24 µM (inactive); in the assay with TK-10 it was 21.1 µM (inactive).
Turning to `COc1ccc2c(C)c(Oc3c(Cl)c(Cl)c(O)c(C#N)c3C#N)oc2c1`, the GI50 in the assay with DU-145 was > 100 µM (inactive); in the assay on PC-3 it was > 100 µM (inactive); with BT-549, > 100 µM (inactive); in the assay on OVCAR-4, > 100 µM (inactive); in the assay on NCI-H522 it was > 100 µM (inactive); with HCT-15, greater than 100 µM. For the same compound, the GI50 in the assay with Malme-3M, in the assay on SR, in the assay on MDA-N, with OVCAR-5, with ACHN and in the assay with KM12 was > 100 µM (inactive) in each case. For the same compound, the GI50 with SW-620, in the assay on CCRF-CEM and with TK-10 was > 100 µM (inactive) each time.
With `Cc1cn(CC2=NCCN2)c(=O)[nH]c1=O`, the GI50 in the assay on DU-145 is > 100 µM (inactive); in the assay with PC-3, > 100 µM (inactive); with BT-549, > 100 µM (inactive); in the assay with OVCAR-4, > 100 µM (inactive); with NCI-H522, > 100 µM (inactive); in the assay with HCT-15, greater than 100 µM. The GI50 in the assay with Malme-3M, in the assay with SR, with MDA-N, in the assay on OVCAR-5, in the assay on ACHN and in the assay on KM12 was > 100 µM (inactive) throughout. Further, the GI50 in the assay with SW-620, in the assay with CCRF-CEM and in the assay with TK-10 was > 100 µM (inactive) throughout.
Consider `Cc1cn(C2CC(O)C(Cn3nncc3Cn3ccc(=O)[nH]c3=O)O2)c(=O)[nH]c1=O` (centres undefined), for which the GI50 in the assay on DU-145 was > 100 µM (inactive); in the assay with PC-3 it was > 100 µM (inactive); with BT-549, > 100 µM (inactive); in the assay on OVCAR-4 it was > 100 µM (inactive); with NCI-H522, > 100 µM (inactive); in the assay on HCT-15 it was greater than 100 µM. For the same compound, the GI50 with Malme-3M, with SR, with MDA-N, in the assay on OVCAR-5, in the assay with ACHN and with KM12 was > 100 µM (inactive) in each case. Besides, the GI50 with SW-620, with CCRF-CEM and in the assay on TK-10 was > 100 µM (inactive) throughout.
In the case of `CNc1ccc(Cl)cc1C(=O)N1CCC[C@H]1CO`, the GI50 in the assay on DU-145 is > 100 µM (inactive); in the assay on PC-3 it was > 100 µM (inactive); in the assay with BT-549 it was > 100 µM (inactive); in the assay on OVCAR-4, > 100 µM (inactive); in the assay on NCI-H522, > 100 µM (inactive); in the assay with HCT-15, greater than 100 µM. Further, the GI50 in the assay with Malme-3M is > 100 µM (inactive); in the assay with SR, 80.9 µM (inactive); with MDA-N it was > 100 µM (inactive); in the assay with OVCAR-5, > 100 µM (inactive); with ACHN, > 100 µM (inactive); in the assay with KM12, > 100 µM (inactive). For the same compound, the GI50 in the assay on SW-620, in the assay on CCRF-CEM and in the assay with TK-10 was > 100 µM (inactive) each time.
For the compound `CCN(CC)c1ncnc2c1ncn2CCNC(CO)(CO)CO`, the GI50 with DU-145 was > 100 µM (inactive); with PC-3, > 100 µM (inactive); in the assay with BT-549, > 100 µM (inactive); with OVCAR-4, > 100 µM (inactive); with NCI-H522 it was > 100 µM (inactive); with HCT-15, greater than 100 µM. For the same compound, the GI50 in the assay with Malme-3M, in the assay with SR, in the assay on MDA-N, in the assay on OVCAR-5, with ACHN and in the assay with KM12 was > 100 µM (inactive) each time. Moreover, the GI50 in the assay on SW-620, with CCRF-CEM and with TK-10 was > 100 µM (inactive) throughout.
For the compound `CN1C(=O)c2ccccc2OC12C=Cc1ccc(O)cc1O2` (centres undefined), the GI50 with DU-145 was 22.6 µM (inactive); in the assay on PC-3, 21.3 µM (inactive); with BT-549, 30.8 µM (inactive); in the assay with OVCAR-4, 28.1 µM (inactive); with NCI-H522 it was 20.4 µM (inactive); in the assay on HCT-15 it was 29.6 µM. Further, the GI50 is < 0.01 µM (active) in the assay on SR; 31 µM (inactive) in the assay on MDA-N; 20.7 µM (inactive) in the assay on OVCAR-5; 23 µM (inactive) in the assay with ACHN; 25.2 µM (inactive) in the assay on KM12; 26.6 µM (inactive) with SW-620. Moreover, the figures for the GI50 in the assay with CCRF-CEM and in the assay with TK-10 were 19.3 µM (inactive) and 26.8 µM (inactive), respectively.
Take `Oc1cccc2ccc(Br)nc12`: the GI50 in the assay on DU-145 was > 100 µM (inactive); with PC-3, 86.5 µM (inactive); in the assay on BT-549, > 100 µM (inactive); in the assay with OVCAR-4, > 100 µM (inactive); in the assay on NCI-H522, > 100 µM (inactive); with HCT-15, greater than 100 µM. Also, the GI50 was > 100 µM (inactive) with Malme-3M; 62.4 µM (inactive) with SR; > 100 µM (inactive) in the assay on MDA-N; > 100 µM (inactive) with OVCAR-5; > 100 µM (inactive) in the assay on ACHN; > 100 µM (inactive) in the assay on KM12. The GI50 in the assay with SW-620 is > 100 µM (inactive); in the assay on CCRF-CEM, 46.6 µM (inactive); with TK-10 it was > 100 µM (inactive).
On to `O/N=N/c1ccccn1.OCC1OC2OC3C(CO)OC(OC4C(CO)OC(OC5C(CO)OC(OC6C(CO)OC(OC7C(CO)OC(OC1C(O)C2O)C(O)C7O)C(O)C6O)C(O)C5O)C(O)C4O)C(O)C3O` (centres undefined), for which the GI50 was > 100 µM (inactive) in the assay with DU-145; 65.3 µM (inactive) with PC-3; 30.8 µM (inactive) in the assay with BT-549; > 100 µM (inactive) with OVCAR-4; 68.2 µM (inactive) with NCI-H522; greater than 100 µM in the assay on HCT-15. The GI50 in the assay with Malme-3M is 61 µM (inactive); in the assay with SR, 0.583 µM (active); in the assay with MDA-N, 19.9 µM (inactive); in the assay on OVCAR-5 it was > 100 µM (inactive); in the assay with ACHN, > 100 µM (inactive); in the assay on KM12, 82.4 µM (inactive). For the same compound, the GI50 in the assay with SW-620 is 42.1 µM (inactive); with CCRF-CEM it was 67.5 µM (inactive); in the assay with TK-10 it was > 100 µM (inactive).
